Results: PubChem BioAssay AID2060499 (Molecular Pharmacology Branch, DTP, NCI, 2025)

Tested on: 777334-354-R2-J4-PDC tumor spheroids with HUVEC/MSC, viability
Assay: Anticancer human tumor 777334-354-R2-J4-PDC patient-derived pancreatic adenocarcinoma cell line growth inhibition [GQUAD]
Conditions: for IC50: curve of first compound; for viability, T/C: stronger effect = lower value
How it was run: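 Multi-cell-type spheroids of tumor cells with HUVEC and mesenchymal stem cells, treated with drug combinations. Concentrations descend in half-log steps from near clinical Cmax, or from 10 microM where Cmax is unknown; viability read-out.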

[1] = second compound 0.0316 µM, first compound 0.0316 µM
[2] = second compound 0.0316 µM, first compound 0.1 µM
[3] = second compound 0.0316 µM, first compound 0.316 µM
[4] = second compound 0.0316 µM, first compound 1 µM
[5] = second compound 0.0316 µM, first compound 3.16 µM
[6] = second compound 0.0316 µM, first compound 10 µM
[7] = second compound 0.1 µM, first compound 0.0316 µM
[8] = second compound 0.1 µM, first compound 0.1 µM
[9] = second compound 0.1 µM, first compound 0.316 µM
[10] = second compound 0.1 µM, first compound 1 µM
[11] = second compound 0.1 µM, first compound 3.16 µM
[12] = second compound 0.1 µM, first compound 10 µM
[13] = second compound 0.316 µM, first compound 0.0316 µM
[14] = second compound 0.316 µM, first compound 0.1 µM
[15] = second compound 0.316 µM, first compound 0.316 µM
[16] = second compound 0.316 µM, first compound 1 µM
[17] = second compound 0.316 µM, first compound 3.16 µM
[18] = second compound 0.316 µM, first compound 10 µM
[19] = second compound 1 µM, first compound 0.0316 µM
[20] = second compound 1 µM, first compound 0.1 µM
[21] = second compound 1 µM, first compound 0.316 µM
[22] = second compound 1 µM, first compound 1 µM
[23] = second compound 1 µM, first compound 3.16 µM
[24] = second compound 1 µM, first compound 10 µM
[25] = second compound 3.16 µM, first compound 0.0316 µM
[26] = second compound 3.16 µM, first compound 0.1 µM
[27] = second compound 3.16 µM, first compound 0.316 µM
[28] = second compound 3.16 µM, first compound 1 µM
[29] = second compound 3.16 µM, first compound 3.16 µM
[30] = second compound 3.16 µM, first compound 10 µM
[31] = second compound 10 µM, first compound 0.0316 µM
[32] = second compound 10 µM, first compound 0.1 µM
[33] = second compound 10 µM, first compound 0.316 µM
[34] = second compound 10 µM, first compound 1 µM
[35] = second compound 10 µM, first compound 3.16 µM
[36] = second compound 10 µM, first compound 10 µM
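Note: spheroids exposed to compounds for 7 days before readout.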

CC(C)(O)C1CCC(Nc2ccc3ncc(-c4cccc(C(F)(F)F)c4)n3n2)CC1 (stereo not drawn) + CN(C)c1ccc(Nc2c3ccc(NC(=O)CCN4CCCC4)cc3nc3cc(NC(=O)CCN4CCCC4)ccc23)cc1
IC50 (second compound 0.0316 µM): 849 nM | IC50 (second compound 0.1 µM): 921 nM | IC50 (second compound 0.316 µM): 1340 nM | IC50 (second compound 1 µM): 1340 nM | IC50 (second compound 3.16 µM): 1060 nM | IC50 (second compound 10 µM): 669 nM | viability, T/C [1]: 99.9% | viability, T/C [2]: 90.2% | viability, T/C [3]: 90.2% | viability, T/C [4]: 43.4% | viability, T/C [5]: 32.3% | viability, T/C [6]: 35.5% | viability, T/C [7]: 98.2% | viability, T/C [8]: 86.5% | viability, T/C [9]: 81.4% | viability, T/C [10]: 47.4% | viability, T/C [11]: 31.3% | viability, T/C [12]: 31.5% | viability, T/C [13]: 89% | viability, T/C [14]: 68.1% | viability, T/C [15]: 79.7% | viability, T/C [16]: 55% | viability, T/C [17]: 36.6% | viability, T/C [18]: 33.9% | viability, T/C [19]: 78.9% | viability, T/C [20]: 89.9% | viability, T/C [21]: 81.4% | viability, T/C [22]: 56.3% | viability, T/C [23]: 29.6% | viability, T/C [24]: 33.3% | viability, T/C [25]: 76.8% | viability, T/C [26]: 82.3% | viability, T/C [27]: 80.5% | viability, T/C [28]: 51.2% | viability, T/C [29]: 27.9% | viability, T/C [30]: 27% | viability, T/C [31]: 83.9% | viability, T/C [32]: 77.2% | viability, T/C [33]: 67.8% | viability, T/C [34]: 41.6% | viability, T/C [35]: 19.1% | viability, T/C [36]: 19.4%

COc1ncnc(C2CC2)c1-c1ncc2cnn(Cc3ccc(-c4nc(C(F)(F)F)cn4C(C)C)cc3)c2n1 + CN(C)c1ccc(Nc2c3ccc(NC(=O)CCN4CCCC4)cc3nc3cc(NC(=O)CCN4CCCC4)ccc23)cc1
IC50 (second compound 0.0316 µM): > 10000 nM | IC50 (second compound 0.1 µM): > 10000 nM | IC50 (second compound 0.316 µM): > 10000 nM | IC50 (second compound 1 µM): > 10000 nM | IC50 (second compound 3.16 µM): > 10000 nM | IC50 (second compound 10 µM): > 10000 nM | viability, T/C [1]: 103% | viability, T/C [2]: 94.8% | viability, T/C [3]: 108% | viability, T/C [4]: 95.7% | viability, T/C [5]: 105% | viability, T/C [6]: 111% | viability, T/C [7]: 104% | viability, T/C [8]: 91.1% | viability, T/C [9]: 94.4% | viability, T/C [10]: 84.5% | viability, T/C [11]: 100% | viability, T/C [12]: 98.3% | viability, T/C [13]: 97.7% | viability, T/C [14]: 94.5% | viability, T/C [15]: 94% | viability, T/C [16]: 95% | viability, T/C [17]: 109% | viability, T/C [18]: 105% | viability, T/C [19]: 96.2% | viability, T/C [20]: 101% | viability, T/C [21]: 94.5% | viability, T/C [22]: 93.8% | viability, T/C [23]: 106% | viability, T/C [24]: 96.8% | viability, T/C [25]: 84.1% | viability, T/C [26]: 85.1% | viability, T/C [27]: 92.6% | viability, T/C [28]: 94.2% | viability, T/C [29]: 97.2% | viability, T/C [30]: 91.9% | viability, T/C [31]: 81.2% | viability, T/C [32]: 73.5% | viability, T/C [33]: 80.1% | viability, T/C [34]: 75.6% | viability, T/C [35]: 70.6% | viability, T/C [36]: 58.4%

Cc1[nH]c2ccccc2c1CCNCc1ccc(/C=C/C(=O)NO)cc1 + CN(C)c1ccc(Nc2c3ccc(NC(=O)CCN4CCCC4)cc3nc3cc(NC(=O)CCN4CCCC4)ccc23)cc1
IC50 (second compound 0.0316 µM): 202 nM | IC50 (second compound 0.1 µM): 185 nM | IC50 (second compound 0.316 µM): 220 nM | IC50 (second compound 1 µM): 214 nM | IC50 (second compound 3.16 µM): 175 nM | IC50 (second compound 10 µM): 104 nM | viability, T/C (second compound 0.0316 µM, first compound 0.000999 µM): 104% | viability, T/C (second compound 0.0316 µM, first compound 0.00316 µM): 83.1% | viability, T/C (second compound 0.0316 µM, first compound 0.00999 µM): 97.8% | viability, T/C [1]: 90.5% | viability, T/C (second compound 0.0316 µM, first compound 0.0999 µM): 75.8% | viability, T/C [3]: 33.4% | viability, T/C (second compound 0.1 µM, first compound 0.000999 µM): 108% | viability, T/C (second compound 0.1 µM, first compound 0.00316 µM): 84.8% | viability, T/C (second compound 0.1 µM, first compound 0.00999 µM): 103% | viability, T/C [7]: 86.2% | viability, T/C (second compound 0.1 µM, first compound 0.0999 µM): 73.2% | viability, T/C [9]: 30.8% | viability, T/C (second compound 0.316 µM, first compound 0.000999 µM): 92.3% | viability, T/C (second compound 0.316 µM, first compound 0.00316 µM): 88.4% | viability, T/C (second compound 0.316 µM, first compound 0.00999 µM): 99.5% | viability, T/C [13]: 88.9% | viability, T/C (second compound 0.316 µM, first compound 0.0999 µM): 79.6% | viability, T/C [15]: 36.4% | viability, T/C (second compound 1 µM, first compound 0.000999 µM): 84.8% | viability, T/C (second compound 1 µM, first compound 0.00316 µM): 86.9% | viability, T/C (second compound 1 µM, first compound 0.00999 µM): 88.3% | viability, T/C [19]: 79% | viability, T/C (second compound 1 µM, first compound 0.0999 µM): 71.9% | viability, T/C [21]: 38.9% | viability, T/C (second compound 3.16 µM, first compound 0.000999 µM): 90.6% | viability, T/C (second compound 3.16 µM, first compound 0.00316 µM): 86.9% | viability, T/C (second compound 3.16 µM, first compound 0.00999 µM): 89% | viability, T/C [25]: 79.5% | viability, T/C (second compound 3.16 µM, first compound 0.0999 µM): 66.1% | viability, T/C [27]: 33.5% | viability, T/C (second compound 10 µM, first compound 0.000999 µM): 77% | viability, T/C (second compound 10 µM, first compound 0.00316 µM): 80.1% | viability, T/C (second compound 10 µM, first compound 0.00999 µM): 80.6% | viability, T/C [31]: 70.4% | viability, T/C (second compound 10 µM, first compound 0.0999 µM): 51.2% | viability, T/C [33]: 26.4%

COc1ccc([C@@H](O)c2cc(-c3ncnc4cc(N5CCOCC5)ccc34)c(F)cc2Cl)nn1 + Cc1[nH]c2ccc(F)cc2c1-c1nc2c3cccnc3c3ncccc3c2[nH]1
IC50 (second compound 0.0316 µM): 3890 nM | IC50 (second compound 0.1 µM): 3880 nM | IC50 (second compound 0.316 µM): 3440 nM | IC50 (second compound 1 µM): 1890 nM | IC50 (second compound 3.16 µM): < 31.6 nM | IC50 (second compound 10 µM): < 31.6 nM | viability, T/C [1]: 102% | viability, T/C [2]: 91% | viability, T/C [3]: 95% | viability, T/C [4]: 76% | viability, T/C [5]: 54.5% | viability, T/C [6]: 30.3% | viability, T/C [7]: 110% | viability, T/C [8]: 98.8% | viability, T/C [9]: 93% | viability, T/C [10]: 71% | viability, T/C [11]: 55.4% | viability, T/C [12]: 30.5% | viability, T/C [13]: 92.8% | viability, T/C [14]: 92.9% | viability, T/C [15]: 88.2% | viability, T/C [16]: 80.3% | viability, T/C [17]: 51.4% | viability, T/C [18]: 28.9% | viability, T/C [19]: 79.9% | viability, T/C [20]: 89.9% | viability, T/C [21]: 76.8% | viability, T/C [22]: 61.8% | viability, T/C [23]: 40.6% | viability, T/C [24]: 22.2% | viability, T/C [25]: 46.1% | viability, T/C [26]: 43.4% | viability, T/C [27]: 36.7% | viability, T/C [28]: 17.7% | viability, T/C [29]: 13.6% | viability, T/C [30]: 9.99% | viability, T/C [31]: 35.4% | viability, T/C [32]: 29.1% | viability, T/C [33]: 27.8% | viability, T/C [34]: 15.2% | viability, T/C [35]: 13% | viability, T/C [36]: 12.6%
